Reference: US20060069124A1 (priority 2004, published 2006)

How the values were obtained:
human eosinophils [1] = test: Transwell chamber chemotaxis assay: inhibition of 5-HT-induced eosinophil chemotaxis; type: cell-based; conditions: 5-HT 100 nM
Method: (§1) Eosinophil Isolation: Eosinophils were purified from the peripheral blood of allergic donors (Boehme, et al. J. Immunol. 163:1611 (1999)). […] Culture medium alone or medium containing 5-HT (100 nM) or eotaxin (50 nM) was added to the lower chamber. In certain experiments 5-HT was added to only upper or both upper and lower chambers and incubated at 37° C. for 4 h after which the chambers were removed and the number of migrated cells was quantitated and expressed as a % of total cells added to the well. […] Neuropsychopharmacology 15:116 (1996)), on 5-HT mediated eosinophil chemotaxis was investigated in vitro (FIG. 3).

human eosinophils [2] = test: Transwell chamber chemotaxis assay: eotaxin-induced eosinophil migration; type: cell-based; conditions: MDL-100,907 20 μM; eotaxin 50 nM; FIG. 3
Method: as §1

OVA-challenged mice [3] = test: AHR to methacholine in murine model of allergic airway inflammation; type: in vivo, BALB/c mice; conditions: 0.5 mg/kg body weight i.p., 15 min before OVA aerosol challenge; versus OVA-challenged mice without antagonist; FIG. 6
Method: Murine model of allergic airway inflammation: Pulmonary eosinophilia was induced in female BALB/c mice. In brief, mice were sensitized by two i.p. injections with 50 μg ovalbumin (OVA) in 200 μl alum (Pierce). Non-sensitized mice received 200 μl of alum alone. […] Fifteen minutes after injection of the inhibitor, mice were exposed to three inhalations (30 min each) of aerosolized OVA (10 mg/ml in 0.9% sterile saline) at 1 h intervals. Non-sensitized mice received an i.p. injection of vehicle and aerosol challenge of saline only. One hour after the last aero-allergen challenge, mice were assessed for airway hyperreactivity/responsiveness (AHR) as described below and subsequently sacrificed and processed for BAL fluid collection to determine eosinophil counts (Broide, et al. Am. J. Respir. Cell Mol. Biol. 18:218 (1998)). Determination of AHR to methacholine: AHR was assessed after completion of the final OVA inhalation challenges, immediately before the mice were sacrificed using a single chamber whole body plethysmograph obtained from Buxco (Troy, N.Y.), as previously described (Broide, et al. Am. J. Physiol. Lung Cell Mol Physiol. 282:[…] (2002)). In this system, an unrestrained, spontaneously breathing mouse is placed into the main chamber of the plethysmograph, and pressure differences between this chamber and a reference chamber are recorded. […]

OVA-challenged mice [4] = test: Eosinophil counts in BAL fluid in murine model of allergic airway inflammation; type: in vivo, BALB/c mice; conditions: 0.5 mg/kg body weight i.p.; versus OVA-challenged mice without compound; FIG. 7
Method: Murine model of allergic airway inflammation: Pulmonary eosinophilia was induced in female BALB/c mice. In brief, mice were sensitized by two i.p. injections with 50 μg ovalbumin (OVA) in 200 μl alum (Pierce). Non-sensitized mice received 200 μl of alum alone. […] Fifteen minutes after injection of the inhibitor, mice were exposed to three inhalations (30 min each) of aerosolized OVA (10 mg/ml in 0.9% sterile saline) at 1 h intervals. Non-sensitized mice received an i.p. injection of vehicle and aerosol challenge of saline only. One hour after the last aero-allergen challenge, mice were assessed for airway hyperreactivity/responsiveness (AHR) as described below and subsequently sacrificed and processed for BAL fluid collection to determine eosinophil counts (Broide, et al. Am. J. Respir. Cell Mol. Biol. 18:218 (1998)). […] BALB/c mice were immunized intraperitoneally (i.p.) with alum alone (control), 50 μg OVA in alum and boosted 12 days later with an additional dose of OVA (50 μg). […] Fifteen minutes later, mice were challenged with either nebulized OVA (10 mg/ml) or PBS (challenge control) for 30 min. […] Three hours after the last challenge, AHR was measured in unrestrained mice using BUXCO plethysmography. […] The percentage of the total cells that were eosinophils was quantitated. […] No eosinophils were detected (n.d.) in the BAL fluid of control mice.

5HT1 receptors = conditions: cited from earlier work
[5] = test system: adrenergic alpha-1 receptors; conditions: cited from earlier work
dopamine D-2 receptors = dopamine D-2 receptors (Homo sapiens, UniProt P14416); conditions: cited from earlier work
[6] = test system: muscarinic cholinergic receptors; conditions: cited from earlier work
human eosinophils [7] = test: Chemoattractant-induced migration of eosinophils; type: cell-based; conditions: for migration of human eosinophils induced by chemoattractant: C5a 10^−7 M positive control, eotaxin 50 nM on untreated eosinophils, FIG. 1, FIG. 3
Method: Eosinophil Isolation: Eosinophils were purified from the peripheral blood of allergic donors (Boehme, et al. J. Immunol. 163:1611 (1999)).
Culture medium alone or medium containing 5-HT (100 nM) or eotaxin (50 nM) was added to the lower chamber. In certain experiments 5-HT was added to only upper or both upper and lower chambers and incubated at 37° C. for 4 h after which the chambers were removed and the number of migrated cells was quantitated and expressed as a % of total cells added to the well.

neutrophils = test: Chemoattractant-induced chemotaxis of neutrophils; type: cell-based; conditions: C5a 10^−7 M positive control; FIG. 1

Sequence of dopamine D-2 receptors (P14416 whole entry): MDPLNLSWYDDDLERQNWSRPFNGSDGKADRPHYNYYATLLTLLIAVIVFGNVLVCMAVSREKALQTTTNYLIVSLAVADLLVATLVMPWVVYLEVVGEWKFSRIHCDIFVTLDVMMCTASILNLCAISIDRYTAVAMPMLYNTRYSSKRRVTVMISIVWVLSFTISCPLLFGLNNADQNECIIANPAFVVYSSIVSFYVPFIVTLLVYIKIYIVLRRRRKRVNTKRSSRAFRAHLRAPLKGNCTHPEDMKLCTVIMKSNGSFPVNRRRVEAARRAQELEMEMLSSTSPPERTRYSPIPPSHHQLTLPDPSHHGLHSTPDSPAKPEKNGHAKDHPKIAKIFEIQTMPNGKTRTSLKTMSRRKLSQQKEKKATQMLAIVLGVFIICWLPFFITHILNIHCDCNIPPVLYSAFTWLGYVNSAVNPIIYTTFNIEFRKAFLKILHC

COc1cccc([C@H](O)C2CCN(CCc3ccc(F)cc3)CC2)c1OC [MDL-100,907, R-(+)-α-(2,3-dimethoxyphenyl)-1-[2-(4-fluorophenyl)ethyl]-4-piperidine methanol]
chemotactic response to 5-HT (human eosinophils [1]; MDL-100,907 20 μM, versus untreated eosinophils, FIG. 3): significantly reduced chemotactic response
inhibition of eosinophil chemotaxis to 5-HT (human eosinophils [1]; all ranges from 0.1 μM to 100 μM, FIG. 5): Robust inhibition of eosinophil chemotaxis
migratory response to eotaxin of treated eosinophils (human eosinophils [2]): robust migratory response
AHR (airway hyperresponsiveness), BUXCO plethysmography (OVA-challenged mice [3]): markedly reduced AHR
number of eosinophils present in the BAL fluid (OVA-challenged mice [4]): inhibited the number of eosinophils
activity at 5HT1 receptors (5HT1 receptors): little detectable activity
activity at adrenergic alpha-1 receptors [5]: little detectable activity
activity at dopamine D-2 receptors (dopamine D-2 receptors): little detectable activity
activity at muscarinic cholinergic receptors [6]: little detectable activity

eotaxin: chemokine, eosinophil chemoattractant
migration of human eosinophils induced by chemoattractant (human eosinophils [7]; 5-HT alone): robust migratory response

NCCc1c[nH]c2ccc(O)cc12 [5-HT, Serotonin]
concentration at which induced eosinophil migration was maximal (human eosinophils [7]; 5-HT alone, dose-dependent): 10^−6 molar (M)
migration of human eosinophils induced by chemoattractant (human eosinophils [7]; 5-HT alone): induce migration of human eosinophils in a dose-dependent manner
nature of induced migration (chemotactic or chemokinetic) (human eosinophils [7]; 5-HT in upper or both chambers, FIG. 2): directed chemotactic response and not chemokinetic
chemotaxis of neutrophils induced by chemoattractant (neutrophils): did not induce chemotaxis of neutrophils

B1: C5a: positive control chemoattractant for eosinophils and neutrophils (protein, UniProt P01031 678-751, looked up)
C5a anaphylatoxin: TLQKKIEEIAAKYKHSVVKKCCYDGACVNNDETCEQRAARISLGPRCIKAFTECCVVASQLRANISHKDMQLGR
modifications: C5a anaphylatoxin
notes: positive control chemoattractant for eosinophils and neutrophils
migration of human eosinophils induced by chemoattractant (human eosinophils [7]; 5-HT alone): induce migration of both eosinophils and neutrophils
chemotaxis of neutrophils induced by chemoattractant (neutrophils): induce migration of both eosinophils and neutrophils
